Results: paper PMC6934184, “Selective DNA-PKcs inhibition extends the therapeutic index of localized radiotherapy and chemotherapy” (The Journal of Clinical Investigation, 2019)

Target: T1, BRAF (Homo sapiens, UniProt P15056)
T1 construct: purchased Thermo Fisher Scientific (Life Technologies) SelectScreen
Experiment: SelectScreen Z'LYTE
Type: biochemical
Settings: ATP 100 µM
Procedure, shortened: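 Compound tested in SelectScreen activity assays, Z'LYTE for CSF1R, CDK1/cyclin B and MAP2K6 and Adapta for CAMK1. ATP for CAMK1 was listed as 10, and Km app was used for CSF1R. Results are expressed in percent.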

T1 sequence (P15056 whole entry): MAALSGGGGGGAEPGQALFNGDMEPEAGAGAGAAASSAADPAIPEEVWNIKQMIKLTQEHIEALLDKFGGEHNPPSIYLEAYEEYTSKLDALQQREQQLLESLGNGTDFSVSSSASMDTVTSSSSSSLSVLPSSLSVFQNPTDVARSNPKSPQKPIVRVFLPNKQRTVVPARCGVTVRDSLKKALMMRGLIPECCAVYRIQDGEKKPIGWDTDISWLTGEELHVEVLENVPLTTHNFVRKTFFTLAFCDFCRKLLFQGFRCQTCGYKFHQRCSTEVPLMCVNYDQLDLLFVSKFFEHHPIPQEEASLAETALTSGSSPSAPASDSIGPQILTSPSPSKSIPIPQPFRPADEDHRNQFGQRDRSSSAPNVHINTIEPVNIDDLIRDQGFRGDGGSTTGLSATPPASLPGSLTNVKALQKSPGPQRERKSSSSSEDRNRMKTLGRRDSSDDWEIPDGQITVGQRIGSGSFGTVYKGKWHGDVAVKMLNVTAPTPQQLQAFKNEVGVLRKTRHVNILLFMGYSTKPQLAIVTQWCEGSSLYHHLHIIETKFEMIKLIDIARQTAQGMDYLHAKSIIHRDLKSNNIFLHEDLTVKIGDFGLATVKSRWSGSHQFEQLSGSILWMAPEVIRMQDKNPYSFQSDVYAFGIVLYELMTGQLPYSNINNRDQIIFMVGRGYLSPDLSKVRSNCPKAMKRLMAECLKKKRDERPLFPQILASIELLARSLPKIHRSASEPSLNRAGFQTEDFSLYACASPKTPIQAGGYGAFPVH

CN(C(=O)CN1CCOCC1)c1ccc2sc3c(-c4cccc5c(=O)cc(N6CC7CCC(C6)O7)oc45)cccc3c2c1 [NU5455]
inhibition at 1 µM: 9.9%
